Structures can show the parent of a compound that is named as a salt. Where two headings read alike, the source gives them in different places.
Experiments:
MYB mRNA = assay: Splicing RT-qPCR assay, MYB canonical (CJ) and alternative (AJ) junction mRNA; assay type: cell-based, human; details: Homo sapiens; for IC50: canonical junction mRNA; for AC50: alternative junction mRNA, read-out: MYB AJ (AC50, increase in AJ mRNA)
In short: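 Treatment of A673 or K562 cultures with compounds (eleven-point titration, highest final 10 uM, ≤0.25% DMSO) ran one day at 37 °C. Afterwards cells were lysed directly in the well, and cDNA synthesis coupled with qPCR measured CJ and AJ isoform levels against a reference transcript.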

K562 cells = assay: Cell viability, Cell Titer Glo 2.0 assay, K562; details: 72 hours
Experimental: Compounds described herein were screened for toxicity in K562 (human chronic myelogenous leukemia) and SH-SY5Y (human neuroblastoma) cells using a Cell Titer Glo 2.0 assay.
• Promega CellTiter-Glo® 2.0 Cell Viability Assay (cat #G9241) • Corning 384-well TC-treated microplates (cat #3570)
Cells were plated at 500 cells/well (K562 cells) in 45 μL of IMDM supplemented with 10% FBS in a 384-well opaque plate. Wells containing only medium were used as a blank control. Test compounds (e.g., compounds of Formula (I) or (II)) were first serially diluted in DMSO then diluted 1:100 with IMDM+10% FBS. The final concentration of DMSO was 0.1% in each well. The cells were incubated for 72 hours at 37° C. and 5% CO2 before assaying with Cell Titer Glo 2.0 reagent.

Target C = assay: HiBiT protein abundance assay, Target C (K562 HiBiT knock-in); assay type: cell-based, human; details: HiBiT knock-in cells, 24 hours
Experimental: Cells were maintained in IMDM with 10% FBS. Before the assay, cells were diluted with […] growth media (IMDM+1% FBS media) and were seeded in a 384-well plate at a density of 10000 cells/well (for each cell line listed in Table 6). Each compound was prepared as a 10-point 3-old serial dilution in DMSO with the top dose at a final concentration of 10 μM in the well. Unmodified K562 cells were added at the previously specified density with DMSO to serve as an assay baseline and positive control (PC) and DMSO only with the respective modified cell lines was added to the negative control (NC) columns. Final DMSO concentration was kept at or below 0.25%. Treated cell plates were placed in an incubator at 37° C. with 5% CO2 for 24 hours. After 24 hours, 25 μL of Complete HiBit Lytic reagent was added to each well at room temperature (e.g. one plate requiring 10 ml Lytic Buffer, 100 μL LgBiT Protein, 200 μL Lytic Substrate), shaken for 5 minutes at 600 RPM, then left to sit for 10 minutes for signal to stabilize before reading on a Spark Cyto plate reader (Tecan) with a 500 ms measurement time.
To determine compound effects on protein abundance of each target in Table 6, the percent response for each respective cell line was calculated at each compound concentration as follows:
For the normalized response at each concentration, a four-parameter logistical regression was fit to the data and the response was interpolated at the 50% value to determine a concentration for protein abundance at 50% (IC50) the untreated control.

[1] = qPCR panel, read-out: MYB CJ (decrease in CJ mRNA levels, IC50)
[2] = RT-qPCR, A673 or K562 cells, 24 hours treatment
[3] = RT-qPCR, A673 or K562 cells, 24 hours treatment, read-out: MYB CJ (IC50, decrease in CJ mRNA)

IC50 (MYB mRNA; [1]) [nM]	IC50 (MYB mRNA; [3]) [nM]	IC50 (Target C) [nM]	Compound	AC50 (MYB mRNA; [2]) [nM]	Effect on Cell Viability, K562 (K562 cells)
100 to 1000	100 to 1000	1000 to 10000	Cn1cc2cc(-c3ccc4cc(NC5CCNCC5)cnc4n3)c(O)c(F)c2n1 [Compound 285]	100 to 1000	B (100-1000 nM)
1000 to 10000	1000 to 10000	1000 to 10000	Cc1cn2nc(-c3cnc4nc(C5CCNCC5)ccc4c3)cc(C)c2n1 [Compound 115, 6-(2,8-dimethylimidazo[1,2-b]pyridazin-6-yl)-2-(piperidin-4-yl)-1,8-naphthyridine]	1000 to 10000	C (1000-9999 nM)
1000 to 10000	1000 to 10000	> 10000	C[C@@H]1CN(c2cnc3nc(-c4ccc5nn(C)cc5c4)cc(Cl)c3c2)C[C@H](C)N1 [Compound 320, 4-chloro-6-[(3R,5S)-3,5-dimethylpiperazin-1-yl]-2-(2-methylindazol-5-yl)-1,8-naphthyridine]	1000 to 10000	C (1000-9999 nM)
100 to 1000	100 to 1000	100 to 1000	Cc1cn2nc(-c3ccc4cc(N5C[C@@H](C)N[C@@H](C)C5)cnc4n3)cc(C)c2n1 [Compound 330]	100 to 1000	B (100-1000 nM)
100 to 1000	100 to 1000	100 to 1000	CN[C@H]1CN(c2cnc3nc(-c4cc5cn(C)nc5c(C)c4O)ccc3c2)C[C@H]1F [Compound 129, 5-{6-[(3R,4S)-3-fluoro-4-(methylamino)pyrrolidin-1-yl]-1,8-naphthyridin-2-yl}-2,7-dimethylindazol-6-ol]	100 to 1000	B (100-1000 nM)
< 100	< 100	1000 to 10000	CN(c1cnc2nc(-c3cc4cn(C)nc4c(F)c3O)cc(Cl)c2c1)[C@H]1CCNC1 [Compound 275]	< 100	A (<100 nM)
100 to 1000	100 to 1000	1000 to 10000	Cc1cn2cc(-c3cc(Cl)c4cc(N5C[C@@H](C)N[C@@H](C)C5)cnc4n3)cc(F)c2n1 [Compound 297]	100 to 1000	B (100-1000 nM)
< 100	< 100	1000 to 10000	Cc1c(O)c(-c2cc(Cl)c3cc(N4CCNC5(CC5)C4)cnc3n2)cc2cn(C)nc12 [Compound 381]	< 100	B (100-1000 nM)
< 100	< 100	< 100	Cc1c(O)c(-c2ccc3cc(N4CC[C@@H](NCC5CC5)C4)cnc3n2)cc2cn(C)nc12 [Compound 118]	< 100	A (<100 nM)
100 to 1000	100 to 1000	100 to 1000	Cn1cc2cc(-c3ccc4cc(N5CC[C@H](NCC6CC6)C5)cnc4n3)c(O)cc2n1 [Compound 314]	100 to 1000	B (100-1000 nM)
< 100	< 100	< 100	CN[C@@H]1CCN(c2cnc3nc(-c4cc(C)c5nc(C)cn5n4)cc(Cl)c3c2)C1 [Compound 341]	< 100	A (<100 nM)

More lines, now with the values behind:

Compound	IC50 (MYB mRNA; [1]) [nM]	IC50 (MYB mRNA; [3]) [nM]	IC50 (Target C) [nM]	AC50 (MYB mRNA; [2]) [nM]	Effect on Cell Viability, K562 (K562 cells)
Cc1c(O)c(-c2cc(Cl)c3cc(N4CCC(N(C)C)C4)cnc3n2)cc2cn(C)nc12 (stereo not shown) [Compound 143, 5-{4-chloro-6-[3-(dimethylamino)357pyrrolidine-1-yl]-1,8-naphthyridin-2-yl}-2,7-dimethylindazol-6-ol]	< 100	< 100	100 to 1000	< 100	B (100-1000 nM)
CN(c1cnc2nc(-c3cc4cn(C)nc4c(F)c3O)ccc2c1)C1CCNCC1 [Compound 284]	100 to 1000	100 to 1000	1000 to 10000	100 to 1000	
C[C@@H]1CN(c2cnc3nc(-c4cc5cn(C)nc5cc4O)ccc3c2)C[C@H](C)N1 [Compound 343]	100 to 1000	100 to 1000	1000 to 10000	100 to 1000	B (100-1000 nM)
CCNC1CCN(c2cnc3nc(-c4cc5cn(C)nc5c(C)c4O)ccc3c2)C1 (stereo not shown) [Compound 122, 5-{6-[3-(ethylamino)pyrrolidin-1-yl]-1,8-naphthyridin-2-yl}-2,7-dimethylindazol-6-ol]	< 100	< 100	< 100	< 100	A (<100 nM)
CCN[C@H]1CCN(c2cnc3nc(-c4cc5cn(C)nc5c(C)c4O)ccc3c2)C1 [Compound 123]	< 100	< 100	100 to 1000	< 100	
CCNC1CCN(c2cnc3nc(-c4cc5cn(C)nc5c(F)c4O)ccc3c2)C1 (stereo not shown) [Compound 106, 5-{6-[3-(ethylamino)pyrrolidin-1-yl]-1,8-naphthyridin-2-yl}-7-fluoro-2-methylindazol-6-ol]	< 100	< 100	< 100	< 100	A (<100 nM)
Cc1cn2cc(-c3cc(Cl)c4cc(N5C[C@H](C)N[C@@H](C)C5)cnc4n3)cc(F)c2n1 [Compound 298]	< 100	< 100	1000 to 10000	< 100	B (100-1000 nM)
CCN[C@@H]1CCN(c2cnc3nc(-c4cc5cn(C)nc5cc4O)cc(Cl)c3c2)C1 [Compound 317]	< 100	< 100	< 100	< 100	A (<100 nM)
CN[C@@H]1CN(c2cnc3nc(-c4cc5cn(C)nc5c(C)c4O)ccc3c2)C[C@@H]1F [Compound 132, 5-{6-[(3S,4R)-3-fluoro-4-(methylamino)pyrrolidin-1-yl]-1,8-naphthyridin-2-yl}-2,7-dimethylindazol-6-ol]	100 to 1000	100 to 1000	100 to 1000	< 100	B (100-1000 nM)
CN(c1cnc2nc(-c3cc4cn(C)nc4c(F)c3O)cc(Cl)c2c1)[C@@H]1CCNC1 [Compound 276]	< 100	< 100	100 to 1000	< 100	A (<100 nM)
CNC1CCN(c2cnc3nc(-c4cc5cn(C)nc5c(C)c4O)ncc3c2)C1 (stereo not shown) [Compound 104, 2,7-dimethyl-5-{6-[3-(methylamino)pyrrolidin-1-yl]pyrido[2,3-d]pyrimidin-2-yl}indazol-6-ol]	< 100	< 100	100 to 1000	< 100	A (<100 nM)
CN[C@@H]1CCN(c2cnc3nc(-c4cc(C)c5nc(C)cn5n4)ccc3c2)C1 [Compound 117]	< 100	< 100	100 to 1000	100 to 1000	B (100-1000 nM)
C[C@H]1CN(c2cnc3nc(-c4cc5cn(C)nc5c(F)c4O)cc(Cl)c3c2)C[C@H](C)N1 [Compound 280]	< 100	< 100	< 100	< 100	A (<100 nM)
CCN[C@H]1CCN(c2cnc3nc(-c4cc5cn(C)nc5cc4O)ccc3c2)C1 [Compound 311, 5-{6-[(3S)-3-(ethylamino)pyrrolidin-1-yl]-1,8-naphthyridin-2-yl}-2-methylindazol-6-ol hydrochloride]	100 to 1000	100 to 1000	100 to 1000	100 to 1000	B (100-1000 nM)
CN[C@H]1CCN(c2cnc3nc(-c4cc(C)c5nc(C)cn5n4)cc(Cl)c3c2)C1 [Compound 340]	< 100	< 100	100 to 1000	100 to 1000	B (100-1000 nM)
Cc1cc(-c2cc3cn(C)nc3c(C)c2O)nc2ncc(N3CCNCC3)cc12 [Compound 151, 2,7-dimethyl-5-[4-methyl-6-(piperazin-1-yl)-1,8-naphthyridin-2-yl]indazol-6-ol]	< 100	< 100	100 to 1000	< 100	
Cc1c(O)c(-c2cc(C3CC3)c3cc(N4CCNCC4)cnc3n2)cc2cn(C)nc12 [Compound 144, 5-(4-cyclopropyl-6-(piperazin-1-yl)-1,8-naphthyridin-2-yl)-2,7-dimethyl-2H-indazol-6-ol bis(2,2,2-trifluoroacetate)]	100 to 1000	100 to 1000	1000 to 10000	100 to 1000	

Reference: patent US20250326748A1, “COMPOUNDS AND METHODS FOR MODULATING SPLICING” (REMIX THERAPEUTICS INC., priority 2022, published 2025)
